Data published in patent US6855730B2, “3-methylidenyl-2-indolinone modulators of protein kinase” (Sugen, Inc., priority 1998, dated 2005).
pIC50: −log10 of the molar value. Counter-ions that a name gives are not always drawn.

How the values were obtained:
src protein kinase = molecular target: T1, src protein kinase (Gallus gallus, UniProt P00523); experiment: Biochemical SRC assay (phosphorylation of biotinylated peptide); settings: read-out: bio src IC50
T1 construct: host or cells: Schizosaccharomyces pombe SP200
Description: This assay is used to determine src protein kinase activity measuring phosphorylation of a biotinylated peptide as the readout.
Yeast transformed with src (Sugen, Inc., Redwood City, Calif.). • b. Cell lysates: Yeast cells expressing src are pelleted, washed once with water, re-pelleted and stored at −80° C. until use. • c. N-terminus biotinylated [sequence] is prepared by standard procedures well known to those skilled in the art. • d. DMSO: Sigma, St. Louis, Mo. • e. […] Vecastain ELITE ABC reagent: Vector, Burlingame, Calif. • h. […] S. Pombe strain SP200 (h-s leul.32 ura4 ade210) is grown as described and transformations are pRSP expression plasmids are done by the lithium acetate method (Superti-Furga, supra). Cells are grown in the presence of 1 μM thiamine to repress expression from the nmtl promoter or in the absence of thiamine to induce expression. • i. […] Turbo TMB-ELISA peroxidase substrate: Pierce Chemical.
Buffer Solutions • a. PBS (Dulbecco's Phosphate-Buffered Saline): GIBCO PBS, GIBCO Cat. #450-1300EB. • b. Blocking Buffer: 5% Non-fat milk (Carnation) in PBS. • c. Carbonate Buffer: Na2CO4 from Fischer, Cat. # S495, make up 100 mM stock solution. • d. Kinase Buffer: 1.0 ml (from 1M stock solution) MgCl2, 0.2 ml (from a 1M stock solution) MnCl2, 0.2 ml (from a 1M stock solution) DTT, 5.0 ml (from a 1M stock solution) HEPES, 0.1 ml TX-100, bring to 10 ml total volume with MilliQ H2O. • e. […] NaCl: Fischer Cat. # S271-10, Make up 5M stock solution with MilliQ H2O. • i. […] MgCl2: Fischer Cat. # M33-500, make up 1M stock solution with MilliQ H2O. • k. […] MnCl2: Fischer Cat. # M87-100, make up 1M stock solution with MilliQ H2O. • n. DTT: -Fischer Cat. # BP172-5. • o. […] Kinase Reaction Mixture: Amount per assay plate (100 wells): 1.0 ml Kinase Buffer, 200 λg GST-ζ, bring to final volume of 8.0 ml with MilliQ H2O. • q. […] Then add 1 drop of reagent B. Put tube on orbital shaker at room temperature and mix for 30 minutes.
Preparation of src Coated ELISA Plate. • 1. Coat ELISA plate with 0.5 μg/well anti-src mab in 100 μl of pH 9.6 sodium carbonate buffer, hold at 40° C. overnight. • 2. Wash wells once with PBS. • 3. […] Wash plate 5× with PBS. • 5. Add 10 μg/well of src transformed yeast lysates diluted in Lysis Buffer (0.1 ml total volume per well). (Amount of lysate may vary between batches.) Shake plate for 20 minutes at room temperature.
Preparation of Phosphotyrosine Antibody-coated ELISA Plate. • 1. 4G10 plate: coat 0.5 μg/well 4G10 in 100 μl PBS overnight at 4° C. and block with 150 μl of 5% milk in PBS for 30 minutes at room temperature.
Kinase Assay Procedure. • 1. Remove unbound proteins from plates and wash plates 5× with PBS. • 2. […] Wash plate 5× with TBST. • 10. Incubate with Vectastain ELITE ABC reagent (100 μl/well) for 30 min. at room temperature. • 11. Wash the wells 5× with TBST. • 12. Develop with Turbo TMB.

[1] = molecular target: Myc-GyrB-FGFR fusion protein (Homo sapiens, UniProt P11362); experiment: Biochemical FGFR assay (ELISA); settings: read-out: bio fgfR1 IC50
Chain of Myc-GyrB-FGFR fusion protein (P11362 478-767 limits assumed): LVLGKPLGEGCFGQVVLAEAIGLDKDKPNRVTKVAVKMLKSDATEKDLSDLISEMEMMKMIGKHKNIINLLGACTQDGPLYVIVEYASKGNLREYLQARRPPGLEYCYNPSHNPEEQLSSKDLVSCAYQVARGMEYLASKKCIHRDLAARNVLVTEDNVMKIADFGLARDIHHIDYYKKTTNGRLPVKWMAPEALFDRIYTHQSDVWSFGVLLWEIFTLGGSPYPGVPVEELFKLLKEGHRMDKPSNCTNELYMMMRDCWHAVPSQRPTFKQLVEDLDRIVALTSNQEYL
Description: This assay measures in vitro kinase activity of the Myc-GyrB-FGFR fusion protein using ELISA.
Materials and Reagents • 1. HNTG
PBS (Dulbecco's Phosphate-Buffered Saline, Gibco Catalog # 450-1300EB). • 3. Blocking Buffer. • 4. Kinase Buffer.
Working solution: 100 mM in ethanol. • 6.
ABTS Solution. • 10. Hydrogen peroxide 30% solution ( Fisher Catalog # H325). • 11. ABTS/H2O2. • 12. 0.2 M HCl. • 13.
Prepare 1.0 mM solution in MilliQ H2O, adjust pH to 7.2 with HCl. • 14.
Prepare 5 M solution in MilliQ H2O. • 15. MgCl, (Fisher Cat. No. M33-500).
Prepare 1 M solution in MilliQ H2O. • 16. HEPES (Fisher Cat. No. BP310-500).
Prepare 1 M solution in MilliQ H2O, adjust pH to 7.5, sterile filter. • 17. TBST Buffer. • 18. Sodium Carbonate Buffer (Fisher Cat. No. S495).
Prepare 0.1 M solution in MilliQ H2O, adjust pH to 9.6 with NaOH, filter. • 19. Dithiothreitol (DTT, Fisher Cat. No. BP172-25).
Prepare 0.5 mM working solution in MilliQ H2O just prior to-use. Store at −20° C. until used, discard any leftover. • 20. MnCl2. • 21. Triton X-100. • 22. Goat α-Rabbit IgG (Cappel). • 23. Affinity purified Rabbit α GST GyrB (Biochemistry Lab. SUGEN, Inc.).
All of the following steps are conducted at room temperature unless otherwise indicated. • 1. Coat Corning 96-well ELISA plates with 2 μg Goat α-Rabbit antibody per well in Carbonate Buffer such that total well volume is 100 μl. Store overnight at 40° C. • 2. Remove unbound Goat a-Rabbit antibody by inverting plate to remove liquid. Pat plate on a paper towel to remove excess liquid and bubbles • 3.. Add 150 μl Blocking Buffer (5% Low Fat Milk in PBS) to each well. Incubate while shaking on a micro-titer plate shaker for 30 min. • 4. Wash 4× with TBST. Pat plate on a paper towel to remove excess liquid and bubbles. • 5. Add 0.5 μg Rabbit α-GyrB antibody per well. Dilute antibody in DPBS to a final volume of 100 μl per well. Incubate with shaking on a micro-titer plate shaker at room temperature for 1 hour. • 6. Wash 4× with TBST as described in step 4. • 7. Add 2 μg COS/FGFR cell lysate (Myc-GyrB-FGFR source) in HNTG to each well to give a final volume of 100 μl per well. Incubate with shaking on a micro-titer plate shaker for 1 hour. • 8. Wash 4× with TBST as described in step 4. • 9. Add 80 μl of 1× kinase buffer per well. • 10. […] Transfer 10 μ l of diluted test compound solution and control wells from polypropylene plate wells to the corresponding ELISA plate wells, incubate with shaking on a micro-titer plate shaker for 20 minutes. • 12. Add 10 μl of 70 μM ATP diluted in kinase buffer to positive control and test wells (Final ATP concentration is 7 EM/well). Add 10 μl 1× kinase buffer to negative control wells. Incubate with shaking on a micro-titer plate shaker for 15 min. • 13. Stop kinase reaction by adding 5 μl 0.5 M EDTA to all wells. • 14. Wash 4× with TBST as described in step 4. • 15. Add 100 μl biotin conjugated α-phosphotyrosine mab (b4G10) diluted in TBST to each well. Incubate with shaking on a micro-titer plate shaker for 30 minutes. • 16. Prepare Vectastain ABC reagent. […] Mix by inverting tube several times. Add 1 drop reagent B and mix again. • 17. Wash 4× with TBST as described in step 4. • 18. Add 100 μl ABC HRP reagent to each well. Incubate with shaking on a micro-titer plate shaker for 30 minutes. • 19. Wash 4× with TBST as described in step 4. • 20. Add 100 μl of ABTS/H2O2 solution to each well. • 22. Incubate 5 to 15 minutes with shaking. Remove any bubbles. • 23. If necessary stop reaction by adding 1 00 μl of 0.2M HCl/well. • 24.

[2] = molecular target: T2, chimeric receptor having the extra-cellular domain of EGF-R and the intra-cellular domain of Her2 (Homo sapiens, UniProt P04626); experiment: EGF-induced Her2-driven BrdU incorporation; format: cell-based; settings: read-out: BrdU HER 2 driven IC50
T2 construct: fused on or other part: the same chimera
T2 sequence (P04626 676-1255 limits assumed, change not shown): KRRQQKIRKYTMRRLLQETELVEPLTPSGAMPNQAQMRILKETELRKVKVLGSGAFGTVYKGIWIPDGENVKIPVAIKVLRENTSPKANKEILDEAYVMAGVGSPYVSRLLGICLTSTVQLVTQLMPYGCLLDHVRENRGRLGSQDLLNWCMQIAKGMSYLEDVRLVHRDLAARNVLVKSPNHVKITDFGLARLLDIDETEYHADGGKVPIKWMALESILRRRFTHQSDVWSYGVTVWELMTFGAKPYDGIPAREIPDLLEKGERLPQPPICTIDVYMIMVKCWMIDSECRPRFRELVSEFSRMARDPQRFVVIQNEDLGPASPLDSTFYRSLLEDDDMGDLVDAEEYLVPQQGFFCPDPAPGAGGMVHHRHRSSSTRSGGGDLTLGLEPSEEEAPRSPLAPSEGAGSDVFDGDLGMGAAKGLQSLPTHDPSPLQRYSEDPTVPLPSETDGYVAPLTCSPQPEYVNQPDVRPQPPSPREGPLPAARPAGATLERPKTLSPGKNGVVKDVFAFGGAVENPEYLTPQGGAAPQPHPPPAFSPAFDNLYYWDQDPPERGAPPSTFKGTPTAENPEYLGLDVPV
Description: The cellular/catalytic assays described herein are performed in an ELISA format. The general procedure is as follows: a compound is introduced to cells expressing the test kinase, either naturally or recombinantly, for a selected period of time after which, if the test kinase is a receptor, a ligand known to activate the receptor is added. The cells are lysed and the lysate is transferred to the wells of an ELISA plate previously coated with a specific antibody recognizing the substrate of the enzymatic phosphorylation reaction. Non-substrate components of the cell lysate are washed away and the amount of phosphorylation on the substrate is detected with an antibody specifically recognizing phosphotyrosine compared with control cells that were not contacted with a test compound. The cellular/biologic assays described herein measure the amount of DNA made in response to activation of a test kinase, which is a general measure of a proliferative response. The general procedure for this assay is as follows: a compound is introduced to cells expressing the test kinase, either naturally or recombinantly, for a selected period of time after which, if the test kinase is a receptor, a ligand known to activate the receptor is added. After incubation at least overnight, a DNA labeling reagent such as Bromodeoxyuridine (BrdU) or 3H-thymidine is added. The amount of labeled DNA is detected with either an anti-BrdU antibody or by measuring radioactivity and is compared to control cells not contacted with a test compound.
EGF-Induced Her2-Driven BrdU Incorporation
Protocol • (1) Cells-are seeded at 8000 cells/well in DMEM, 10% CS, 2mM Gln in a 96-well plate. Cells are incubated overnight at 37° C. in 5% CO2. • (2) After 24 hours, the cells are washed with PBS, and then are serum starved in serum free medium (0% CS DMEM with 0.1% BSA) for 24 hours. • (3) On day 3, ligand (EGF=2 nM, prepared in DMEM with 0.1% BSA) and test compounds are added to the cells simultaneously. The negative control wells receive serum free DMEM with 0.1% BSA only, the positive control cells receive the ligand (EGF) but no test compound. Test compounds are prepared in serum free DMEM with ligand in a 96 well plate, and serially diluted for 7 test concentrations. • (4) After 20 hours of ligand activation, diluted BrdU labeling reagent (1:100 in DMEM, 0.1% BSA) is added and the cells are incubated with BrdU (final concentration=10 μM) for 1.5 hours. • (5) After incubation with labeling reagent, the medium is removed by decanting and tapping the inverted plate on a paper towel. FixDenat solution is added (50 μl/well) and the plates are incubated at room temperature for 45 minutes on a plate shaker. • (6) The FixDenat solution is thoroughly removed by decanting and tapping the inverted plate on a paper towel. Milk is added (5% dehydrated milk in PBS, 200 μ/well) as a blocking solution and the plate is incubated for 30 minutes at room temperature on a plate shaker. • (7) The blocking solution is removed by decanting and the wells are washed once with PBS. Anti-BrdU-POD solution (1:100 dilution in PBS, 1% BSA) is added (100 μl/well) and the plate is incubated for 90 minutes at room temperature on a plate shaker. • (8) The antibody conjugate is thoroughly removed by decanting and rinsing the wells 5 times with PBS, and the plate is dried by inverting and tapping on a paper towel. • (9) TMB substrate solution is added (100 μl/well) and incubated for 20 minutes at room temperature on a plate shaker until color development is sufficient for photometric detection. • (10) The absorbance of the samples are measured at 410 nm (in “dual wavelength” mode with a filter reading at 490 nm, as a reference wavelength) on a Dynatech ELISA plate reader.

A431 cells = experiment: A431 growth assay (2% FBS); format: cell-based; settings: Homo sapiens, A-431, read-out: A431 growth (2% FBS) IC50
flkGST = molecular target: T3, flkGST (Homo sapiens, UniProt P35968); experiment: bio flkGST assay; format: biochemical
T3 construct: GST
T3 sequence (P35968 786-1356 limits assumed): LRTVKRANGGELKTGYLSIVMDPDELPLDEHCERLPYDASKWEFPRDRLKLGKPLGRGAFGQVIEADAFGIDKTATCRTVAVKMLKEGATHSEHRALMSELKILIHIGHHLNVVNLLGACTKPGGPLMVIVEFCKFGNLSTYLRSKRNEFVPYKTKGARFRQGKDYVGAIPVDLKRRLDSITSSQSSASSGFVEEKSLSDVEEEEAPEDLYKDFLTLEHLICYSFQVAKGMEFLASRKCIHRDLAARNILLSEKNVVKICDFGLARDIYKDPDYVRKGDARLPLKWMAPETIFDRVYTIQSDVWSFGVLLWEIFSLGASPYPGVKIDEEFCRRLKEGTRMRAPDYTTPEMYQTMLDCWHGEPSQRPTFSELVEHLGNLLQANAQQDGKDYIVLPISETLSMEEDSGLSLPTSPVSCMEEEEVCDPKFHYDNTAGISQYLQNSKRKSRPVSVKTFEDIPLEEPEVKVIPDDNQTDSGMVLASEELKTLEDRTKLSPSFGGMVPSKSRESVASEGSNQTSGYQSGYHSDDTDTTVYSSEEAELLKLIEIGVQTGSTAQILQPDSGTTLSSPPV

Compound | pIC50 (src protein kinase) | pIC50 [1] | pIC50 [2] | pIC50 (A431 cells) | pIC50 (flkGST)
CNS(=O)(=O)c1ccc2c(c1)C(=Cc1[nH]c3ccccc3c1C)C(=O)N2 (racemic) [Example 154, 3-(3-Methyl-1H-indol-2-ylmethylene)-2-oxo-2,3-dihydro-1H-indole-5-sulfonic acid methylamide] | < 4.00 | < 4.70 | – | – | –
COc1ccc(/C=C2/C(=O)Nc3ccc(F)cc32)cc1C1CCCC1 [Example 11, 3-(3-Cyclopentyl-4-methoxybenzylidene)-5-fluoro-1,3-dihydroindol-2-one] | – | – | 5.03 | 4.90 | 4.62
COc1c(C)cc(/C=C2/C(=O)Nc3ccc(Cl)cc32)cc1C [Example 21, 5-Chloro-3-(4-methoxy-3,5-dimethylbenzylidene)-1,3-dihydroindol-2-one] | – | – | 5.18 | 4.82 | –
CC1(C)CCc2cc(/C=C3/C(=O)Nc4ccc(F)cc43)ccc2O1 [Example 23, 3-(2,2-Dimethylchroman-6-ylmethylene)-5-fluoro-1,3-dihydroindol-2-one] | – | – | 4.57 | 4.84 | –
CC(C)c1cc(/C=C2/C(=O)Nc3ccc(Cl)cc32)cc(C(C)C)c1OCCN1CCOCC1 [Example 24, 5-chloro-3-[3,5-diisopropyl-4-(2-morpholin-4-ylethoxy)-benzylidene]-1,3-dihydroindol-2-one] | – | – | 5.15 | 5.35 | –
COc1ccc(/C=C2/C(=O)Nc3ccc(CCN4CCOCC4)cc32)cc1-c1ccsc1 [Example 26, 3-(4-Methoxy-3-thiophen-3-ylbenzylidene)-5-(2-morpholin-4-yl-ethyl)-1,3-dihydroindol-2-one] | – | – | < 4.30 | 5.52 | –
COc1cc(C)c(C=C2C(=O)Nc3cc(NC(C)=O)ccc32)cc1C(C)C [Example 27, N-[3-(5-Isopropyl-4-methoxy-2-methyl-benzylidene)-2-oxo-2,3-dihydro-1H-indol-6-yl]-acetamide] | – | – | 4.63 | 5.19 | –
COc1ccc(C=C2C(=O)Nc3ccccc32)cc1-c1cccc(NC(C)=O)c1 [Example 29, N-[2′-Methoxy-5′-(2-oxo-1,2-dihydroindol-3-ylidenemethyl)-biphenyl-3-yl]-acetamide] | – | – | 5.09 | 5.25 | –
COc1cc(C)c(/C=C2/C(=O)Nc3ccc(F)cc32)cc1C(C)C [Example 30, 5-Fluoro-3-(5-isopropyl-4-methoxy-2-methyl-benzylidene)-1,3-dihydroindol-2-one] | – | – | 5.09 | 5.00 | –
COc1ccc(/C=C2/C(=O)Nc3cc(NC(C)=O)ccc32)cc1-c1cccs1 [Example 31, N-[3-(4-Methoxy-3-thiophen-2-ylbenzylidene)-2-oxo-2,3-dihydro-1H-indol-6-yl]-acetamide] | – | – | 4.54 | 6.52 | –
COc1ccc(/C=C2/C(=O)Nc3ccccc32)cc1-c1ccsc1 [Example 35, 3-(4-Methoxy-3-thiophen-3-ylbenzylidene)-1,3-dihydroindol-2-one] | – | – | 4.86 | 4.87 | –
COc1cc(C)c(/C=C2/C(=O)Nc3ccc(Br)cc32)cc1C(C)C [Example 36, 5-Bromo-3-(5-isopropyl-4-methoxy-2-methyl-benzylidene)-1,3-dihydroindol-2-one] | – | – | 4.67 | < 4.60 | –
COc1cc(/C=C2/C(=O)Nc3ccccc32)c(-c2cccs2)cc1OC [Example 39, 3-(4,5-Dimethoxy-2-thiophen-2-ylbenzylidene)-1,3-dihydroindol-2-one] | – | – | 5.27 | 5.04 | –
CC(=O)Nc1ccc2c(c1)NC(=O)/C2=C/c1ccc(OCCN2CCOCC2)c(-c2cccs2)c1 [Example 40, N-{3-[4-(2-Morpholin-4-ylethoxy)-3-thiophen-2-ylbenzylidene]-2-oxo-2,3-dihydro-1H-indol-6-yl}-acetamide] | – | – | 4.65 | 4.85 | –
COc1cc(C)c(/C=C2/C(=O)Nc3ncccc32)cc1C(C)C [Example 45, 3-(5-Isopropyl-4-methoxy-2-methylbenzylidene)-1,3-dihydro-pyrrolo[2,3-b]pyridin-2-one] | – | – | < 4.30 | 5.49 | –
CCOc1cccc(-c2cc(C=C3C(=O)Nc4ccccc43)ccc2OC)c1 [Example 46, 3-(3′-Ethoxy-6-methoxybiphenyl-3-ylmethylene)-1,3-dihydroindol-2-one] | – | – | 4.60 | 5.26 | –
COc1ccc(/C=C2/C(=O)Nc3ncccc32)cc1C1CCCC1 [Example 47, 3-(3-Cyclopentyl-4-methoxybenzylidene)-1,3-dihydropyrrolo[2,3-b]pyridin-2-one] | – | – | < 4.30 | 4.39 | –
COc1cc(C=C2C(=O)Nc3ccccc32)c(-c2ccccc2OC)cc1OC [Example 49, 3-(4,5,2′-Trimethoxybiphenyl-2-ylmethylene)-1,3-dihydroindol-2-one] | – | – | 5.04 | 4.68 | –
CC(C)c1cc(/C=C2/C(=O)Nc3ccc(Br)cc32)cc(C(C)C)c1OCCN1CCOCC1 [Example 57, 5-Bromo-3-[3,5-diisopropyl-4-(2-morpholin-4-ylethoxy)benzylidene]-1,3-dihydroindol-2-one] | – | – | 5.02 | 5.24 | –
CCOc1cccc(-c2cc(OC)c(OC)cc2/C=C2/C(=O)Nc3ccccc32)c1 [Example 58, 3-(3′-Ethoxy-4,5-dimethoxybiphenyl-2-ylmethylene)-1,3-dihydroindol-2-one] | – | – | 4.87 | 4.98 | –
COc1ccc(/C=C2/C(=O)Nc3ccc(Cl)cc32)cc1-c1cccs1 [Example 59, 5-chloro-3-(4-Methoxy-3-thiophen-2-ylbenzylidene)-1,3-dihydroindol-2-one] | – | – | 4.84 | 5.22 | –
COc1ccc(/C=C2/C(=O)Nc3ccc(Cl)cc32)cc1-c1cccnc1 [Example 60] | – | – | 4.40 | 5.23 | –
COc1cccc(-c2cc(OC)c(OC)cc2/C=C2/C(=O)Nc3ccc(Cl)cc32)c1 [Example 61, 5-Chloro-3-(4,5-3′-Trimethoxybiphenyl-2-ylmethylene)-1,3-dihydroindol-2-one] | – | – | < 4.30 | < 4.60 | –
COc1cc(/C=C2/C(=O)Nc3ccccc32)c(-c2ccc3ccccc3c2)cc1OC [Example 62, 3-(4,5-Dimethoxy-2-naphthalen-2-ylbenzylidene)-1,3-dihydroindol-2-one] | – | – | 4.54 | 5.22 | –
Cc1c(/C=C2\C(=O)Nc3ccc(C(=O)O)cc32)[nH]c2ccccc12 [Example 156, 3-(3-Methyl-1H-indol-2-ylmethylene)-2-oxo-2,3-dihydro-1H-indole-5-carboxylic acid (piperidine salt)] | 6.82 | 5.44 | – | – | –
